{"source": "patent US20090317372A1", "about": "“SMALL MOLECULES FOR THE REDUCTION OF HIGH BLOOD GLUCOSE LEVEL” (priority 2008, published 2009)", "format_in_all_cases": "in vivo", "key": {"[1]": {"tested_on": "BDF1 (C57/BL/6 female×DBA/2 male) mice", "assay": "Glucose tolerance test with BDF1 mice, CCcompound1 and sub-optimal insulin", "details": "CCcompound1 4.5-mg/kg i.p. −15 min and/or insulin 0.02 IU −10 min", "method": "In this experiment again, a sub-optimal dose of insulin was used to probe if CCcompound1 can enhance the effect of insulin on blood glucose. This time first generation hybrid BDF1 (C57/BL/6 female×DBA/2 male) adult (10-12 weeks old) male mice weighing 28-30-g and fasted for 14 hours before i.p. glucose administration (3-g/kg) were used. These mice were […] than mice in the previous experiment described under Example 5. None of the animals received any food during the experiment other than glucose. The animals received i.p. injections of 4.5-mg/kg of CCcompound1 and 0.02 IU of insulin 15 min and 10 min prior to glucose administration. Blood samples were taken and glucose concentrations in whole blood samples determined as described earlier. Each group included six animals. The data are the mean±std. dev. of 6 determinations, i.e. one determination with each of the six animals."}, "[2]": {"tested_on": "Wistar rats", "assay": "Glucose tolerance test in starved rats", "method": "Male Wistar rats weighing 240-270-g were divided into 3 groups, each group consisting of 6 or 7 animals. To ensure standard conditions animals were starved for 14 hours before the start of the experiment. CCcompound1 and CCcompound3 were injected (i.p.) 30 min prior to injecting 3-g/kg of glucose (i.p.). Blood sugar values of the experimental animals were measured with the Fast Glucose C-test; blood samples were taken from the tail. The data are the mean±std. dev. of 6-7 determinations, i.e. one determination with each of the 6-7 animals in the respective groups."}, "[3]": {"tested_on": "C57/BL/6 mice", "assay": "Glucose tolerance test with normal mice, PALP and CCcompound1 combined", "method": "Female C57/BL/6 mice weighing 24-26-g and fasted for 12 hours before i.p. glucose administration (3 g/kg) were used. None of the animals received any food during the experiment other than glucose. One group of animals was untreated while animals in other groups received subcutaneous (s.c.) injections of 2.0 or 4.5-mg/kg of CCcompound1 either 30 min or 60 min prior to glucose administration as indicated in TABLE 5. Two groups of animals received i.p. injections of 0.4-mg per mouse (˜16-mg per kg) of highly purified PALP 24 hours prior to glucose administration. Purification of PALP was described in detail earlier [Z. Kiss, U.S. Pat. No. 7,048,914, “Placental Alkaline Phosphatase to Control Diabetes]. Animals in one of the PALP treated group also received s.c. injections of 4.5-mg/kg of CCcompound1 30 min prior to glucose administration as indicated in TABLE 5. Blood samples were taken and glucose concentrations were immediately measured as described earlier. Each group included five animals. The data are the mean±std. dev. of 5 determinations, i.e. one determination with each of the five animals. “-min” and “-h” indicates the length of period in minutes and hours, respectively, elapsed between the administration of test agents (first) and glucose (second)."}}}
{"smiles": "Cc1c(OCC(O)C[N+](C)(C)C)cc2c(=O)c3ccccc3sc2c1C.[Cl-]", "note": "(stereo not drawn) [CCcompound 1, [3-(3,4-Dimethyl-9-oxo-9H-thioxanthen-2-yloxy)-2-hydroxypropyl]trimethyl-ammonium chloride]", "values": [{"measurement": "Blood glucose", "setting": "[1]; 0 min", "result": "3.1 ± 0.2", "unit": "mM"}, {"measurement": "Blood glucose", "setting": "[1]; 30 min", "result": "4.8 ± 0.3", "unit": "mM"}, {"measurement": "Blood glucose", "setting": "[1]; 60 min", "result": "3.5 ± 0.2", "unit": "mM"}, {"measurement": "Blood glucose", "setting": "[2]; rats starved 14 h, i.p. 30 min prior to glucose 3-g/kg i.p., 0 min", "result": "5.03 ± 0.44", "unit": "mM"}, {"measurement": "Blood glucose", "setting": "[2]; rats, i.p. 30 min prior to glucose, 30 min", "result": "9.21 ± 0.45", "unit": "mM"}, {"measurement": "Blood glucose", "setting": "[2]; rats, i.p. 30 min prior to glucose, 60 min", "result": "5.73 ± 0.39", "unit": "mM"}, {"measurement": "Blood glucose", "setting": "[2]; rats, i.p. 30 min prior to glucose, 90 min", "result": "5.11 ± 0.42", "unit": "mM"}, {"measurement": "Blood glucose", "setting": "[2]; rats, i.p. 30 min prior to glucose, 120 min", "result": "5.37 ± 0.36", "unit": "mM"}, {"measurement": "Blood glucose", "setting": "[3]; CC1 2 mg/kg s.c. −30 min, 0 min", "result": "3.7 ± 0.4", "unit": "mM"}, {"measurement": "Blood glucose", "setting": "[3]; CC1 2 mg/kg s.c. −30 min, 30 min", "result": "6.6 ± 0.4", "unit": "mM"}, {"measurement": "Blood glucose", "setting": "[3]; CC1 2 mg/kg s.c. −30 min, 60 min", "result": "4.9 ± 0.6", "unit": "mM"}, {"measurement": "Blood glucose", "setting": "[3]; CC1 2 mg/kg s.c. −30 min, 120 min", "result": "4.4 ± 0.5", "unit": "mM"}, {"measurement": "Blood glucose", "setting": "[3]; CC1 2 mg/kg s.c. −60 min, 0 min", "result": "3.9 ± 0.6", "unit": "mM"}, {"measurement": "Blood glucose", "setting": "[3]; CC1 2 mg/kg s.c. −60 min, 30 min", "result": "6.7 ± 0.5", "unit": "mM"}, {"measurement": "Blood glucose", "setting": "[3]; CC1 2 mg/kg s.c. −60 min, 60 min", "result": "5.2 ± 0.3", "unit": "mM"}, {"measurement": "Blood glucose", "setting": "[3]; CC1 2 mg/kg s.c. −60 min, 120 min", "result": "4.6 ± 0.3", "unit": "mM"}, {"measurement": "Blood glucose", "setting": "[3]; CC1 4.5 mg/kg s.c. −30 min, 0 min", "result": "3.6 ± 0.4", "unit": "mM"}, {"measurement": "Blood glucose", "setting": "[3]; CC1 4.5 mg/kg s.c. −30 min, 30 min", "result": "6.2 ± 0.4", "unit": "mM"}, {"measurement": "Blood glucose", "setting": "[3]; CC1 4.5 mg/kg s.c. −30 min, 60 min", "result": "4.5 ± 0.3", "unit": "mM"}, {"measurement": "Blood glucose", "setting": "[3]; CC1 4.5 mg/kg s.c. −30 min, 120 min", "result": "4.2 ± 0.4", "unit": "mM"}, {"measurement": "Blood glucose", "setting": "[3]; CC1 4.5 mg/kg s.c. −60 min, 0 min", "result": "3.8 ± 0.5", "unit": "mM"}, {"measurement": "Blood glucose", "setting": "[3]; CC1 4.5 mg/kg s.c. −60 min, 30 min", "result": "6.4 ± 0.3", "unit": "mM"}, {"measurement": "Blood glucose", "setting": "[3]; CC1 4.5 mg/kg s.c. −60 min, 60 min", "result": "4.5 ± 0.5", "unit": "mM"}, {"measurement": "Blood glucose", "setting": "[3]; CC1 4.5 mg/kg s.c. −60 min, 120 min", "result": "4.1 ± 0.6", "unit": "mM"}]}
